Data as given in patent US4835157A, “Thieno- and furopyrimidine-2,4-dione piperidine derivatives as serotonin antagonists and alpha adrenergic blocking agents” (Ortho Pharmaceutical Corporation, priority 1988, dated 1989).
Read-outs that look alike come from different tables or passages of the source.

Key:
5HT1A receptor = biological target: T1, 5HT1A receptor (Rattus norvegicus, UniProt P19327); assay: Brain Serotonin (5HT1A) radioreceptor Assay (3H-8-OH DPAT displacement, rat frontal cortex membranes); format: binding; conditions: for inhibition at 1 µM: read-out: Brain 5-HT1 Receptor % displaced (% inhibition); for IC50: rat frontal cortex membranes, pH 7.4, read-out: Brain 5-HT1 Receptor IC50
T1 construct: Membrane fragments were prepared from prefrontal cortex; from tissue; host or cells: prefrontal/frontal cortex of female rats (about 150 g), membrane fragments
T1 sequence (P19327 1-422): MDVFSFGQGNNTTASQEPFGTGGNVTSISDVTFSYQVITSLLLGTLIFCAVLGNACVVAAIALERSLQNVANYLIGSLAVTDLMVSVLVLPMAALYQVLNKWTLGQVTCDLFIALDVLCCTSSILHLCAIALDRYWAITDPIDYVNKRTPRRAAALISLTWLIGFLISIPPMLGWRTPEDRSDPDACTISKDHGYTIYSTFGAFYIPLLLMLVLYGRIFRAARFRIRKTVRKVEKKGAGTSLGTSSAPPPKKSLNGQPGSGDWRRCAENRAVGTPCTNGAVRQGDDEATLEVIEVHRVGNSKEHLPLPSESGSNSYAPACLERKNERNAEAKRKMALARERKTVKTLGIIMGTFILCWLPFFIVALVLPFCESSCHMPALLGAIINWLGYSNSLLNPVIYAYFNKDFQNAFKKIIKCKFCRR
Method: Brain Serotonin (5HT1A) radioreceptor Assay
The text objects of this procedure were rat frontal cortex membranes. Membrane fragments were prepared from prefrontal cortex disected from brains obtained from female rats (≈150 g). The 5HT1A sites were labeled with ^3 H-8-OH dipropylaminotetralin (8-OH-DPAT). Membrane fragments, ^3 H-8-OH DPAT, TRIS buffer (pH 7.4) and unlabeled compound were incubated for 10 minutes at 37° C. and then for 10 minutes at 4° C. Separation of bound from unbound ^3 H-8-OH DPAT was performed by vacuum filtration on a glass fiber disc. The ability of a compound to compete with ^3 H-8-OH DPAT for binding sites is a measure of the affinity of the compound for the 5HT1A receptor. Specific binding was determined by the difference between total counts bound and the counts bound in the presence of […] 5-hydroxytryptamine.

[1] = tested on: Serotonin-Induced Smooth Muscle Contractions (rabbit thoracic aorta); assay: Inhibition of Serotonin-Induced Smooth Muscle Contractions (isolated thoracic aorta strips); format: cell-based; conditions: Oryctolagus cuniculus, 10 min, concentration shifting the serotonin dose curve 10x to the right, 10 min preincubation, read-out: 5-HT-Induced Smooth Muscle Contraction DR10
Method: Inhibition of Serotonin-Induced Smooth Muscle Contractions
The test objects of this Example were canines and rabbits. Rabbits were sacrificed by T-61 injection and the thoracic aorta was removed immediately. The aorta was placed in warmed, oxygenated Krebs-Henseleit buffer. After the tissue was cleaned, a 2-3 mm wide strip was cut helically from each aorta. A strip of approximately 5 cm was suspended in Krebs-Henseleit buffer at 37° C. in a 25 ml tissue bath and the tissues equilibrated at an initial resting tension of 4 g for 90-120 minutes. An initial serotonin dose curve, 0.01-10 μM was then done on each tissue, followed by a 60 minute washout and reequilibration. The test drug was then added for a 10 minute preincubation and another serotonin dose curve was done using 0.01-100 μM.
Results are expressed as DR10 values. This is the concentration of the compound required to shift the serotonin dose curve 10x to the right, i.e., the concentration of antagonist at which the concentration of serotonin required for 50% maximal contraction is increased ten-fold.

5HT2 [2] = biological target: T2, 5HT2 (Rattus norvegicus, UniProt P14842); assay: 5HT2 Blockade in vivo (antagonism of 5HT induced pressor responses); set-up: Spontaneously hypertensive rats were anesthetized with sodium pentobarbital; from tissue; host or cells: whole animal: anesthetized spontaneously hypertensive rats (vasculature); species or system spontaneously hypertensive rats; conditions: for ED50: rat, iv, read-out: 5-HT-Induced Pressor Response ED50
T2 sequence (P14842 whole entry): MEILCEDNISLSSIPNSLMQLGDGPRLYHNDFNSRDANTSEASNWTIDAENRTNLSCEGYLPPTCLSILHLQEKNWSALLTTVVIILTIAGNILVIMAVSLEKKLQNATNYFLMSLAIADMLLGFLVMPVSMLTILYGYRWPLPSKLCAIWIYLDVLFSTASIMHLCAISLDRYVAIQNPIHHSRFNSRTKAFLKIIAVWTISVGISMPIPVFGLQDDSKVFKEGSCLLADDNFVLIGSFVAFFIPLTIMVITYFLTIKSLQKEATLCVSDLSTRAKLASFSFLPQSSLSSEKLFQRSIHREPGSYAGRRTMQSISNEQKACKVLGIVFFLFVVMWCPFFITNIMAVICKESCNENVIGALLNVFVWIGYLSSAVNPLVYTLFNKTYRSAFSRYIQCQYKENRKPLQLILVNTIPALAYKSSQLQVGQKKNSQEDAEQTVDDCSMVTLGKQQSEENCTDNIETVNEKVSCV
Method: Antagonism of 5HT induced pressor responses was used to assess 5HT2 blockade in vivo. Spontaneously hypertensive rats were anesthetized with sodium pentobarbital (50 mg/kg, i.p.). The right carotid artery and vein were cannulated for pressure recording and drug injection, respectively. The trachea was cannulated, the rat placed on a respirator and ventilated with room air at 50-60 breaths/minute. Rats were pretreated with prazosin hydrochloride (1 mg/kg, i.v., blous) and pentolinium tartrate (5 mg/kg, i.v., bolus). After 10 minutes equilibration, the rat was challenged with 5HT (100 μg/kg) which elevates mean arterial pressure (MAP) 60-100 mmHg; non-responsive rats were discarded.
After a baseline had been reestablished, bolus injections of 5HT (100 μg/kg, i.v.) were given and the MAP responses were evaluated both pre- and post-drug administration. 5HT challenges were repeated 10 minutes after each dose of antagonist. Up to three cumulative doses of the antagonist were given to a single animal.

5HT2 [3] = biological target: T2, 5HT2; assay: Brain Serotonin (5-HT2) Radioreceptor Assay (3H-ketanserin displacement, rat frontal cortex membranes); format: binding; set-up: dissected from brains obtained from female rats; from tissue; host or cells: frontal cortex of female rats (about 150 g), membrane fragments; conditions: 15 min at 37° C
Method: Brain Serotonin (5-HT2) Radioreceptor Assay
The test objects of this Example were rat frontal cortex membranes. Mebrane fragments were prepared from the frontal cortex dissected from brains obtained from female rats (≈150 g). […] Compound bound to the receptor site was separated from the remaining unbound compound by vacuum filtration. […] Specific binding was determined by the difference between total counts bound and counts bound in the presence of 10^-6 M methysergide.

[4] = tested on: serotonin-induced platelet aggregation; assay: Platelet Aggregation Assay (serotonin-induced); format: cell-based; conditions: Platelet; human plasma, serotonin 5 μM
Method: Platelet Aggegation Assay
Human blood was collected into tubes containing sodium citrate. The plasma was separated by centrifugation and was used as the source of platelets. Serotonin (5 μM) was used as the agonist to induce platelet aggregation. A control aggregation curve (as measured by the decrease in absorbance in transmitted light) was obtained in the presence of serotonin and in the absence of test compound. The test compound was added to an identical sample in a cuvette for one minute before addition of serotonin to yield the experimental curve.

serotonin receptors = assay: Inhibition of 5-HTP-Induced Head Twitching; format: in vivo; conditions: male CD1 mice; for Inhibit. of 5-HTP-Head Twitch (result in words): @ 10 (mg/kg, p.o.); for Inhibit. of 5-HTP-Head Twitch ED50: 5-HTP 160 mg/kg i.v. after one hour
Method: Inhibition of 5-HTP-Induced Head Twitching
This test detects compounds with antagonistic activity of serotonin receptors in vivo, and is a modified procedure of Corne, Pickering and Warner, Brit. J. Pharmacol. 20, 106 (1963). Groups of male CD1 mice were fasted overnight but allowed water ad libitum. They were deprived of water during the course of the experiment. The mice were weighed and treated orally or parenterally with the test compound in a dose volume of 10 ml/kg. Doses of test substance were calculated based upon the active compound. Substances for oral administration were dissolved or suspended in a 0.5% aqueous methylcellulose (15 centipoises) vehicle containing 4 ml of Tween 80/l.
A dose of 160 mg/kg of L-5-hydroxytryptophan (5-HTP) was administered i.v. in a dose volume of 5 ml/kg after one hour. The test mouse was restrained in a rodent restrainer that allowed the tail to extend out the back. The tail was then placed in tepid (but not scalding) water for approximately 10 seconds to soften the skin and dilate the tail vein. A 1 ml syringe and 25 gauge (5/8 inch) needle was used to administer the 5-HTP solution into one of the lateral tail veins.
A timer was started after dosing with 5-HTP to the first animal of the test group. […] A head twitch involves the head, neck and ears and has the appearance of an exaggerated pinal reflex. The number of head twitches for each individual vehicle-treated mouse were recorded to establish a historical baseline.
The active compounds in the test block the twitch response (the response rated all or none).

| Compound | inhibition at 1 µM (5HT1A receptor; @ 1 μM, 3H-8-OH DPAT) | IC (10-fold shift) [1] | ED50 (5HT2 [2]) | IC50 (5HT2 [3]) | IC50 [4] | Inhibit. of 5-HTP-Head Twitch (result in words) (serotonin receptors) | 5-HT-Induced Pressor Response, % attenuation (5HT2 [2]; @ 0.3 (mg/kg), anesthetized SHR, 5HT 100 μg/kg i.v.) | Inhibit. of 5-HTP-Head Twitch ED50 (serotonin receptors) | IC50 (5HT1A receptor; 3H-8-OH DPAT) | inhibition at 1 µM (5HT1A receptor) |
| --- | --- | --- | --- | --- | --- | --- | --- | --- | --- | --- |
| CC(C)(C)C(=O)n1c(=O)n(CCN2CCC(=C(c3ccc(F)cc3)c3ccc(F)cc3)CC2)c(=O)c2cscc21 [Example 7, 3-[2-[4-[Bis(4-fluorophenyl)methylene]piperidin-1-yl]ethyl]-1-(2,2-dimethyl-1-oxopropyl)thieno[3,4-d]pyrimidine-2,4-dione] | 3% | 0.02 µM | 0.038 mg/kg | 0.31 nM | 2500 nM | – | – | – | – | – |
| O=C(c1ccccc1)n1c(=O)n(CCN2CCC(=C(c3ccc(F)cc3)c3ccc(F)cc3)CC2)c(=O)c2cscc21 [Example 8] | 0% | 0.01 µM | 0.038 mg/kg | 200 nM | – | Inact. | – | – | – | – |
| O=C(c1ccc(F)cc1)C1CCN(CCn2c(=O)c3cscc3n(C(=O)c3ccccc3)c2=O)CC1 [Example 12, 1-Benzoyl-3-[2-[4-(4-fluorobenzoyl)piperidin-1-yl]ethyl]thieno[3,4-d]pyrimidine-2,4-dione] | 24% | – | – | 8.5 nM | 100 nM | – | 44% | 1.74 mg/kg, p.o. | – | – |
| CC(C)(C)C(=O)n1c(=O)n(CCN2CCC(C(=O)c3ccc(F)cc3)CC2)c(=O)c2cscc21 [Example 13] | 31% | 0.03 µM | – | 15 nM | – | – | – | 1.98 mg/kg, p.o. | – | – |
| CCCCn1c(=O)n(CCN2CCC(C(=O)c3ccc(F)cc3)CC2)c(=O)c2cscc21 [Example 15, 1-Butyl-3-[2-[4-(4-fluorobenzoyl)piperidin-1-yl]ethyl]thieno[3,4-d]pyrimidine-2,4-dione 1/4 Hydrate] | 0% | – | – | 450 nM | – | – | – | 1-10 mg/kg, p.o. | – | – |
| Cc1scc2[nH]c(=O)n(CCN3CCC(C(=O)c4ccc(F)cc4)CC3)c(=O)c12 [Example 16, 3-[2-[4-(4-Fluorobenzoyl)piperidin-1-yl]ethyl]-5-methylthieno[3,4-d]pyrimidine-2,4-dione] | 2% | 0.019 µM | 0.119 mg/kg | 7 nM | 380 nM | – | – | – | – | – |
| Cc1scc2[nH]c(=O)n(CCN3CCC(=C(c4ccc(F)cc4)c4ccc(F)cc4)CC3)c(=O)c12 [Example 17] | 0% | – | – | 32 nM | – | Inact. | – | – | – | – |
| CCCCn1c(=O)n(CCN2CCC(C(=O)c3ccc(F)cc3)CC2)c(=O)c2ccsc21 [Example 18, 1-Butyl-3-[2-[4-(4-fluorobenzoyl)piperidin-1-yl]ethyl]thieno[2,3-d]pyrimidine-2,4-dione] | 17% | – | – | 23 nM | – | Inact. | – | – | – | – |
| O=C(c1ccc(F)cc1)C1CCN(CCCCn2c(=O)[nH]c3cscc3c2=O)CC1 [Example 19, 3-[4-[4-(4-Fluorobenzoyl)piperidin-1-yl]butyl]thieno[3,4-d]pyrimidine-2,4-dione] | – | – | – | 12.5 nM | – | – | – | 1-10 mg/kg, p.o. | 210 nM | – |
| O=c1[nH]c2cscc2c(=O)n1CCCCCN1CCC(=C(c2ccc(F)cc2)c2ccc(F)cc2)CC1 [Example 20, 3-[5-[4-[Bis(4-fluorophenyl)methylene]piperidin-1-yl]pentyl]thieno[3,4-d]pyrimidine-2,4-dione] | – | 0.085 µM | – | 650 nM | 300 nM | – | – | – | 270 nM | – |
| Cn1c(=O)n(CCN2CCC(=C(c3ccc(F)cc3)c3ccc(F)cc3)CC2)c(=O)c2cscc21 [Example 23] | – | 0.066 µM | > 0.3 mg/kg | 1.8 nM | 17000 nM | – | – | – | 3000 nM | – |
| O=c1[nH]c2cscc2c(=O)n1CCN1CC=C(c2ccccc2)CC1 [Example 24, 3-[2-[4-Phenyl-1,2,3,6-tetrahydropyridin-1-yl]ethyl]thieno[3,4-dy]pyrimidine-2,4-dione] | – | – | – | 29 nM | – | Inact. | – | – | – | 53% |
